In US20100035929A1, “UNNATURAL DISPYRIN ANALOGUES, PREPARATION AND USES THEREOF” (priority 2008, published 2010):
Read-outs that look alike come from different tables or passages of the source.

Key:
[1] = target: T1, human H3 receptor (Homo sapiens, UniProt Q9Y5N1); experiment: H3 antagonist activity / inhibition (IC50); assay type: biochemical
Description: (§1) In one aspect, H3 affinity (Ki) and inhibition (IC50) can be determined in 5-point concentration response curves. Using data obtained from such methods, SAR can be established.

[2] = target: T1, human H3 receptor; experiment: H3 affinity, radioligand binding assay employing [3H](R)-α-methylhistamine
Description: as §1

[3] = tested on: calcium and potassium ion channels, including hERG; experiment: MDS Pharma Services radioligand binding panel, initial screen at single 10 μM concentration: ion channels; settings: human, read-out: inhibition of a number of calcium and potassium ion channels, including hERG
Procedure: (§2) Multiple screening avenues were pursued to identify the biological activity of dispyrin. Dispyrin was submitted to the screening deck of the Molecular Library Screening Network (MLSCN) and was evaluated against several GPCR targets (M1, M4, D1/D5, mGluR5, mGluR4) in agonist, antagonist and potentiator mode. Utilizing panels of radioligand binding assays from several companies, dispyrin was evaluated against >200 discrete molecular targets over the course of two months. The MDS Pharma Services panel identified multiple activities for dispyrin. […] Other modest activities at the 50-60% range at 10 u.M included other GPCRs and ion channels, but none with significant activity (no Kis or IC50s<10 μM).

[4] = tested on: other GPCRs and ion channels; experiment: MDS Pharma Services radioligand binding panel, initial screen at single 10 μM concentration: other targets; settings: at 10 μM; none with significant activity (no Kis or IC50s<10 μM)
Procedure: as §2

[5] = 5-point concentration response curves, read-out: H3 IC50
[6] = 5-point concentration response curves, read-out: H3 Ki

T1 sequence (Q9Y5N1 whole entry): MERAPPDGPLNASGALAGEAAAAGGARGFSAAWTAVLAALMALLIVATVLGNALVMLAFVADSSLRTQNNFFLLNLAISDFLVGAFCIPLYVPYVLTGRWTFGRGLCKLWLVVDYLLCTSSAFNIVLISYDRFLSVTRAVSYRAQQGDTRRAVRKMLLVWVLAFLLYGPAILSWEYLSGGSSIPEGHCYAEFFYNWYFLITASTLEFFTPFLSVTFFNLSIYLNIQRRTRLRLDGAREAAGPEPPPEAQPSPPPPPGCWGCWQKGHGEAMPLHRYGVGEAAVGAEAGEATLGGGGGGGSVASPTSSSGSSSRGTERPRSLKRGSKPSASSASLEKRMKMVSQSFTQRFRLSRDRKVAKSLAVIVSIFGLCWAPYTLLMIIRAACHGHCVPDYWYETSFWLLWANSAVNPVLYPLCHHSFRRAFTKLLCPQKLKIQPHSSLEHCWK

| Molecule | IC50 [1, 5] | Ki [2, 6] | other results |
| --- | --- | --- | --- |
| CN1CCCC(COc2ccc(CCNC(=O)c3cc(Br)cs3)cc2Br)C1 (stereo not shown) [4-bromo-N-(3-bromo-4-((1-methylpiperidin-3-yl)methoxy)phenethyl)thiophene-2-carboxamide] | 1.7 µM | 1.2 µM |  |
| O=C(NCCc1ccc(OCCN2CCCC2)c(Br)c1)c1cc(Br)cs1 [4-bromo-N-(3-bromo-4-(2-(pyrrolidin-1-yl)ethoxy)phenethyl)thiophene-2-carboxamide] | 0.18 µM | 0.08 µM |  |
| CN(C)CCOc1ccc(CCNC(=O)c2ccc(Br)o2)cc1Br [5-bromo-N-(3-bromo-4-(2-(dimethylamino)ethoxy)phenethyl)furan-2-carboxamide] | 5.9 µM | 2.7 µM |  |
| CN(C)CCOc1ccc(CCNC(=O)c2cc(Br)cs2)cc1Br [4-bromo-N-(3-bromo-4-(2-(dimethylamino)ethoxy)phenethyl)thiophene-2-carboxamide] | 1.5 µM | 0.67 µM |  |
| O=C(NCCc1ccc(OCCN2CCCC2)c(Br)c1)c1ccc(Br)o1 [5-bromo-N-(3-bromo-4-(2-(pyrrolidin-1-yl)ethoxy)phenethyl)furan-2-carboxamide] | 0.39 µM | 0.17 µM |  |
| O=C(NCCc1ccc(OCCN2CC[C@@H](F)C2)c(Br)c1)c1cc(Br)cs1 | 2.1 µM | 1.1 µM |  |
| O=C(NCCc1ccc(OCCN2CCCC2)c(Br)c1)c1cc(Br)c[nH]1 [4-bromo-N-(3-bromo-4-(2-(pyrrolidin-1-yl)ethoxy)phenethyl)-1H-pyrrole-2-carboxamide] | 0.43 µM | 0.19 µM |  |
| C[C@H]1CCCN1CCOc1ccc(CCNC(=O)c2cc(Br)cs2)cc1Br [(S)-4-bromo-N-(3-bromo-4-(2-(2-methylpyrrolidin-1-yl)ethoxy)phenethyl)thiophene-2-carboxamide] | 0.75 µM | 0.33 µM |  |
| O=C(NCCc1ccc(OCCN2CCCC2)c(Br)c1)c1cccc(Br)c1 [3-bromo-N-(3-bromo-4-(2-(pyrrolidin-1-yl)ethoxy)phenethyl)benzamide] | 0.45 µM | 0.21 µM |  |
| CN1CCCC(COc2ccc(CCNC(=O)c3ccc(Br)o3)cc2Br)C1 (stereo not shown) [5-bromo-N-(3-bromo-4-((1-methylpiperidin-3-yl)methoxy)phenethyl)furan-2-carboxamide] | 4.5 µM | 2.1 µM |  |
| C[C@@H]1CCCN1CCOc1ccc(CCNC(=O)c2cc(Br)cs2)cc1Br [(R)-4-bromo-N-(3-bromo-4-(2-(2-methylpyrrolidin-1-yl)ethoxy)phenethyl)thiophene-2-carboxamide] | 0.71 µM | 0.31 µM |  |
| O=C(NCCc1ccc(OCCN2CC[C@H](F)C2)c(Br)c1)c1cc(Br)cs1 [(S)-4-bromo-N-(3-bromo-4-(2-(3-fiuoropyrrolidin-1-yl)ethoxy)phenethyl)thiophene-2-carboxamide] | 2.5 µM | 1.1 µM |  |
| CN(C)CCOc1ccc(CCNC(=O)c2cc(Br)c[nH]2)cc1Br [4-bromo-N-(3-bromo-4-(2-(dimethylamino)ethoxy)phenethyl)-1H-pyrrole-2-carboxamide] | 3.7 µM | 1.6 µM |  |
| O=C(NCc1ccc(OCCN2CCCC2)c(Cl)c1)c1cc(Br)cs1 [4-bromo-N-(3-chloro-4-(2-(pyrrolidin-1-yl)ethoxy)benzyl)thiophene-2-carboxamide] | 2.4 µM | 1.1 µM |  |
| CN1CCCC(COc2ccc(CCNC(=O)c3cc(Br)c[nH]3)cc2Br)C1 (stereo not shown) [4-bromo-N-(3-bromo-4-((1-methylpiperidin-3-yl)methoxy)phenethyl)-1H-pyrrole-2-carboxamide] | 2.9 µM | 1.3 µM |  |
| CN(C)CCCOc1ccc(CCNC(=O)c2cc(Br)cs2)cc1Br [4-bromo-N-(3-bromo-4-(3-(dimethylamino)propoxy)phenethyl)thiophene-2-carboxamide] | 3.6 µM | 1.6 µM |  |
| CN(C)CCCOc1ccc(CCNC(=O)c2ccc(Br)o2)cc1Br [5-bromo-N-(3-bromo-4-(3-(dimethylamino)propoxy)phenethyl)furan-2-carboxamide] | 4.8 µM | 2.2 µM |  |
| O=C(NCCc1ccc(OCCN2CCCC2)c(Cl)c1)c1cc(Br)cs1 [4-bromo-N-(3-chloro-4-(2-(pyrrolidin-1-yl)ethoxy)phenethyl)thiophene-2-carboxamide] | 0.35 µM | 0.16 µM |  |

Continued, in another order:

| IC50 [1, 5] | Ki [2, 6] | Molecule | other results |
| --- | --- | --- | --- |
| 0.56 µM | 0.27 µM | O=C(NCCc1ccc(OCCN2CCCC2)c(Br)c1)c1cccc(C(F)(F)F)n1 [N-(3-bromo-4-(2-(pyrrolidin-1-yl)ethoxy)phenethyl)-6-(trifluoromethyl)picolinamide] |  |
| 2.9 µM | 1.3 µM | CN(C)CCCOc1ccc(CCNC(=O)c2ccc[nH]2)cc1Br [N-(3-bromo-4-(3-(dimethylamino)propoxy)phenethyl)-1H-pyrrole-2-carboxamide] |  |
| 2.1 µM | 0.91 µM | CN1CCCC(COc2ccc(CCNC(=O)c3cccn3C)cc2Br)C1 (stereo not shown) [N-(3-bromo-4-((1-methylpiperidin-3-yl)methoxy)phenethyl)-1-methyl-1H-pyrrole-2-carboxamide] |  |
| 3.9 µM | 1.7 µM | CN(C)CCCOc1ccc(CCNC(=O)c2cccn2C)cc1Br [N-(3-bromo-4-(3-(dimethylamino)propoxy)phenethyl)-1-methyl-1H-pyrrole-2-carboxamide] |  |
| 3.4 µM | 1.5 µM | CN(C)CCOc1ccc(CCNC(=O)c2ccc[nH]2)cc1Br [N-(3-bromo-4-(2-(dimethylamino)ethoxy)phenethyl)-1H-pyrrole-2-carboxamide] |  |
| 4.5 µM | 2.1 µM | CN(C)CCOc1ccc(CCNC(=O)c2cccn2C)cc1Br [N-(3-bromo-4-(2-(dimethylamino)ethoxy)phenethyl)-1-methyl-1H-pyrrole-2-carboxamide] |  |
| 0.26 µM | 0.116 µM | O=C(NCCc1ccc(OCCN2CCCC2)c(Br)c1)c1nccs1 [N-(3-bromo-4-(2-(pyrrolidin-1-yl)ethoxy)phenethyl)thiazole-2-carboxamide] |  |
| 0.55 µM | 0.25 µM | O=C(NCCc1ccc(OCCN2CCCC2)c(Br)c1)c1cccc(Cl)c1 [N-(3-bromo-4-(2-(pyrrolidin-1-yl)ethoxy)phenethyl)-3-chlorobenzamide] |  |
| 0.072 µM | 0.032 µM | N-(3-bromo-4-(2-(pyrrolidin-1- yl)ethoxy)phenethyl)thiazole-5-carboxamide |  |
| 2.4 µM | 1.1 µM | CN(C)CCCOc1ccc(CCNC(=O)c2cc(Br)c[nH]2)cc1Br [dispyrin, 4-bromo-N-(3-bromo-4-(3-(dimethylamino)propoxy)phenethyl)-1H-pyrrole-2-carboxamide] | inhibition at 10 µM [3]: 50 to 60%; IC50 ([1]; read-out: IC50, human H3 antagonist): 2.35 µM; IC50 ([1]; text of b259, read-out: IC50, human H3 antagonist): 2.35 µM; other modest activities (other GPCRs and ion channels) [4]: 50-60%; Ki ([2]; radioligand binding assay employing [3H](R)-α-methylhistamine, read-out: Ki, affinity for the human H3 receptor): 1.04 µM |
| 3.6 µM | 1.5 µM | CN1CCCC(COc2ccc(CCNC(=O)c3ccc[nH]3)cc2Br)C1 (stereo not shown) [N-(3-bromo-4-((1-methylpiperidin-3-yl)methoxy)phenethyl)-1H-pyrrole-2-carboxamide] |  |
| 0.38 µM | 0.15 µM | O=C(NCCc1ccc(OCCN2CCCC2)c(Br)c1)c1ccc[nH]1 [N-(3-bromo-4-(2-(pyrrolidin-1-yl)ethoxy)phenethyl)-1H-pyrrole-2-carboxamide] |  |
| 0.39 µM | 0.13 µM | Cn1cccc1C(=O)NCCc1ccc(OCCN2CCCC2)c(Br)c1 [N-(3-bromo-4-(2-(pyrrolidin-1-yl)ethoxy)phenethyl)-1-methyl-1H-pyrrole-2-carboxamide] |  |
| 0.97 µM | 0.43 µM | O=C(NCCc1ccc(OCCN2CCCC2)c(Br)c1)c1nnc[nH]1 [N-(3-bromo-4-(2-(pyrrolidin-1-yl)ethoxy)phenethyl)-4H-1,2,4-triazole-3-carboxamide] |  |
| 0.98 µM | 0.44 µM | O=C(NCCc1ccc(OCCN2CCCC2)c(Br)c1)c1cccc(C(F)(F)F)c1 [N-(3-bromo-4-(2-(pyrrolidin-1-yl)ethoxy)phenethyl)-3-(trifluoromethyl)benzamide] |  |
| 0.083 µM | 0.037 µM | O=C(NCCc1ccc(OCCN2CCCC2)c(Br)c1)c1cnco1 [N-(3-bromo-4-(2-(pyrrolidin-1-yl)ethoxy)phenethyl)oxazole-5-carboxamide] |  |
